Test results as given in US11474106B2, “Methods for cytotoxic chemotherapy-based predictive assays” (ACCELERATED MEDICAL DIAGNOSTICS, INC., priority 2015, dated 2022).

Columns and labels:
PDX Model BL0293 = assay: Drug-DNA adduct frequency in PDX tumor tissue by AMS; format: in vivo, NSG mice; details: microdose 0.092 mg/kg gemcitabine, 24 h
Excerpt: (§1) Female NSG mice (5-8 weeks of age, body weight: 20 to 25 g) were obtained from Jackson Laboratories (CA, USA). All animals were kept under pathogen-free conditions and were allowed to acclimatize for at least 4 days prior to any experiments. PDX models bearing the indicated patient derived xenografts were created by subcutaneous injection at the flank of 1 mm^3 tumor tissue. To establish multiple PDXs to allow efficacy studies with multiple drugs, PDXs from passage 2-4 were minced into 1 mm^3 sections and injected subcutaneously into multiple mice. At least 3 mice were used for each treatment group. Tumors were allowed to grow to at about 100 mm^3 before being assessed for drug sensitivity or the induction of DNA adducts by the administration of a microdose or a therapeutic dose of labeled drug. […] Tumor growth was assessed by measuring palpable tumors with a caliper and calculating tumor volume. Drug-DNA adduct frequencies were measured in tumor tissue collected 24 hours after intravenous injection of labeled drug and stored at −80° C. until DNA isolation. DNA was isolated using a modified Wizard procedure (Promega), quantitated by spectrophotometry, and then stored frozen at −20° C. until AMS analysis. Ten micrograms of DNA per sample was converted to graphite and measured by AMS for 14C quantification as previously described. […]

PDX Model BL0440 = assay: as above; format: in vivo, NSG mice; details: microdose 0.092 mg/kg gemcitabine, 24 h
Excerpt: as §1

PDX Model BL0269 = assay: as above; format: in vivo, NSG mice
Excerpt: (§2) Female NSG mice (5-8 weeks of age, body weight: 20 to 25 g) were obtained from Jackson Laboratories (CA, USA). All animals were kept under pathogen-free conditions and were allowed to acclimatize for at least 4 days prior to any experiments. PDX models bearing the indicated patient derived xenografts were created by subcutaneous injection at the flank of 1 mm^3 tumor tissue. To establish multiple PDXs to allow efficacy studies with multiple drugs, PDXs from passage 2-4 were minced into 1 mm^3 sections and injected subcutaneously into multiple mice. At least 3 mice were used for each treatment group. Tumors were allowed to grow to at about 100 mm^3 before being assessed for drug sensitivity or the induction of DNA adducts by the administration of a microdose or a therapeutic dose of labeled drug. To assess tumor response to chemotherapy, cisplatin was administered at 2 mg/kg IV every 7 days for a total of 3 cycles, or gemcitabine was administered at 150 mg/kg IP every 7 days for a total of 4 cycles. G/C combination chemotherapy consisted of the simultaneous administration of both drugs using the schema described above. Tumor growth was assessed by measuring palpable tumors with a caliper and calculating tumor volume. Drug-DNA adduct frequencies were measured in tumor tissue collected 24 hours after intravenous injection of labeled drug and stored at −80° C. until DNA isolation. DNA was isolated using a modified Wizard procedure (Promega), quantitated by spectrophotometry, and then stored frozen at −20° C. until AMS analysis. Ten micrograms of DNA per sample was converted to graphite and measured by AMS for 14C quantification as previously described.
(§3) NSG mice bearing the indicated PDX tumors were injected with a microdose of ^14C-labeled carboplatin (FIG. 22A) or ^14C-labeled gemcitabine (FIG. 22B). The microdose of ^14C-labeled carboplatin was 0.375 mg/kg carboplatin, 50,000 dpm/g. The microdose of ^14C-labeled gemcitabine was 0.092 mg/kg gemcitabine, 1000 dpm/g. The doses of each drug administered to the mice were chosen to target 1 μM in plasma concentration of carboplatin and 0.3 μM in plasma concentration of gemcitabine. These plasma concentrations represent 1% of the approximate peak plasma concentration during human chemotherapy. Animals were sacrificed after 24 h and drug-DNA adduct frequency was determined from collected tumor tissue by AMS measurements of ^14C in tumor DNA. Carboplatin DNA-adduct levels correlate with PDX model sensitivity to cisplatin at 24h after microdosing (FIG. 22A). […]
(§4) In this example we test whether gemcitabine/carboplatin (G/Carbo) combination therapy has an effect on the formation of drug-DNA adducts in this synergistic tumor model. […] Carboplatin-DNA monoadducts were measured in tumor tissue 24 h after dosing. […]

PDX Model BL0645 = assay: as above; format: in vivo, NSG mice; details: 24 h
Excerpt: as §2, §3, §4

A549 = assay: MTT assay (IC50); format: cell-based, human
Protocol: Six non-small cell lung cancer (NSCLC) cell lines were treated in culture with [^14C]carboplatin. Carboplatin-DNA monoadduct levels over time were determined by measuring ^14C content in genomic DNA with accelerator mass spectrometry (AMS). Cellular sensitivity to carboplatin and cisplatin was analyzed by the MTT assay (Henderson et al., International Journal of Cancer 2011).
Human NSCLC cell lines H23, H460, H727, HCC827, H1975, and A549 were purchased from ATCC and were cultured with the recommended medium. The MTT assay was performed as previously reported to determine the drug concentration required to inhibit cell growth by 50% (IC50) of cisplatin and carboplatin. [^14C]Carboplatin (at 53 mCi/mmol) was mixed with unlabeled carboplatin to achieve the specific activities required for microdoses and therapeutic doses. Table 1 lists the six NSCLC cell lines and summarizes their IC50 characteristics, induced carboplatin-DNA monoadducts when treated with [^14C]carboplatin, and p and r^2 values for correlation analysis to the IC50 concentrations.

5637 = assay: MTT assay (IC50); format: cell-based, human
Protocol: Thus, we measured the IC50 of the six NSCLC cell lines from Example 2 to both cisplatin and carboplatin to determine if the sensitivity of these six NSCLC cell lines to the two drugs are correlated.
The cell lines were purchased from the American Type Culture Collection (ATCC, Manassas, Va.) and cultured in the recommended media.
Drug-DNA adduct formation and repair was measured by accelerator mass spectrometry.
These two cell lines were also cultured with a range of concentrations of cisplatin, carboplatin, gemcitabine, doxorubicin, methotrexate and vinblastine for 72 hours to determine IC50 for these other drugs (FIG. 16C). These drugs were chosen because of their frequent use in the treatment of bladder cancer.

## Nc1ccn([C@@H]2O[C@H](CO)[C@@H](O)C2(F)F)[14c](=O)n1 [[^14C]gemcitabine, 2′-Deoxy-2′,2′-difluorocytidine, [cytosine-2-^14C]-]
PDX Model BL0293
  gemcitabine adduct levels: 10.0±5.92
PDX Model BL0440
  gemcitabine adduct levels: 13.1±10.2
PDX Model BL0269; BL0269 control experiment (FIG. 23F), microdose gemcitabine 0.092 mg/kg, alone or with carboplatin 0.375 mg/kg
  gemcitabine-DNA adduct levels: 2.44±0.492 adducts per 10^8 nucleotides
PDX Model BL0269; BL0269 tumor DNA, microdose 0.092 mg/kg gemcitabine, 24 h (FIG. 22B)
  gemcitabine adduct levels: 3.17±0.278
PDX Model BL0645; BL0645, therapeutic dose gemcitabine 9.2 mg/kg, alone or with carboplatin 37.5 mg/kg
  gemcitabine adduct level: 169.2±9.129 adducts per 10^8 nucleotides
PDX Model BL0645; BL0645 tumor DNA, microdose 0.092 mg/kg gemcitabine, alone or with carboplatin 0.375 mg/kg
  gemcitabine adduct levels: 2.44±0.880 adducts per 10^8 nucleotides

## N.N.[Cl][Pt][Cl] [cisplatin]
A549
  IC50: 26.3 ± 9.26 µM
5637; 5637 (Table 2)
  IC50: 2.43 ± 0.45 µM
5637; 5637 (parental, Example 11), MTT, 72 hours
  IC50: 0.59 µM
